Measured values published in patent US6670448B2, “Peptide antagonists of zonulin and methods for use of the same” (University of Maryland, Baltimore, priority 1998, dated 2003).
No end group written: not given here.

Test system: rabbit ileum
Test: Peptide antagonists FZI/0 and FZI/1 on rabbit ileum in Ussing chambers, alone or before ZOT or zonulin
Format: cell-based
Experimental: Next, Ussing chamber assays were carried out using ileum from 2-3 kg adult male New Zealand white rabbits, which were sacrificed by cervical dislocation. A 20 cm segment of ileum was removed, rinsed free of the intestinal content, opened along the mesenteric border, and stripped of muscular and serosal layers. Eight sheets of mucosa so prepared were then mounted in lucite Ussing chambers (1.12 cm^2 opening), connected to a voltage clamp apparatus (EVC 4000 WPI, Saratosa, Fla.), and bathed with freshly prepared Ringer's solution comprising 53 mM NaCl, 5.0 mM KCl, 30.5 mM mannitol, 1.69 mM Na2HPO4, 0.3 mM NaH2PO4, 1.25 mM CaCl2, 1.1 mM MgCl2, and 25 mM NaHCO3. The bathing solution was maintained at 37° C. with water-jacketed reservoirs connected to a constant-temperature circulating pump and gassed with 95% O2/5% CO2.
100 μl of zonulin purified from rabbit intestine was added to the mucosal side. The potential difference (PD) was measured every 10 min, and the short-circuit current (Isc) and tissue resistance (Rt) were calculated as described by Fasano et al, supra. Because of tissue variability, data were calculated as ΔRt (Rt at time x)−(Rt at time 0).
Next, rabbit ileum mounted in Ussing chambers as described above, were exposed to 100 μg of FZI/0 (SEQ ID NO:15), 100 μg ofFZI/1 (SEQ ID NO:34), 1.0 μg of 6xHis-ZOT (obtained as described in Example 1), 1.0 μg of zonulini (obtained as described in Example 3), or 1.0 μg of zonulinh (obtained as described in Example 3) alone; or pre-exposed for 20 min to 100 μg of FZI/0 or FZI/1, at which time 1.0 μg of 6xHis-ZOT, 1.0 μg of zonulini, or 1.0 μg of zonulinh, was added. ΔRt was then calculated as described above.

Sequence	inhibitory effect on the action of ZOT, zonulini and zonulinh on Rt (pre-exposure 20 min to 100 μg peptide, FIG. 8 shaded bar)	change in Rt as compared to the negative control, peptide alone (100 μg peptide alone, not significant, FIG. 8 closed bar) [%]	decrease of the effect of ZOT on Rt (pre-treatment 20 min with 100 μg peptide, then 1.0 μg 6xHis-ZOT, FIG. 8) [%]	decrease of the effect of zonulinh on Rt (pre-treatment 20 min with 100 μg peptide, then 1.0 μg zonulinh, FIG. 8) [%]	decrease of the effect of zonulini on Rt (pre-treatment 20 min with 100 μg peptide, then 1.0 μg zonulini, FIG. 8) [%]
VGVLGRPG [FZI/1, second synthetic peptide with positions 8, 12 and 13 changed to the residues of zonulinb (Val, Gly, Arg)]	completely ablated				
GGVLVQPG [FZI/0, synthetic octapeptide corresponding to amino acid residues 8-15 of human fetal zonulini]		0.5	75	100	97
